Results taken from US20130178616A1, “USE OF MODIFIED OLIGO-B-(1,3)-GLUCANES FOR TREATING DISEASES OF THE IMMUNE SYSTEM OLIGO-B-(1,3V-GLUCANE-(1,3)-MANNOSE, OLIGO-B-(1,3)-GLUCANE-(1,3)-MANNITOL AND DERIVATIVES THEREOF, METHODS FOR PREPARING THE SAME AND DRUGS CONTAINING THEM” (ASE & BIO., priority 2006, published 2013).

What was measured:
Assay type in all cases: in vivo, Balb/c mice
peripheral blood cells [1] = assay: Phagocytosis of HEMA particles by peripheral blood cells after injection of the oligosaccharide; conditions: 100 μg/mouse by peritoneal route, 24 hours after injection, control PBS, cells with at least three HEMA particles positive, FIG. 1
Method: (§1) The control used is PBS. The dosages used are 100 μg/mouse.
(§2) One or other of a control, LAM5, LAM7, A0 or A2O were injected, by peritoneal route, into a group of Balb/c mice (Jackson laboratory, Bar Harbor, Me., USA). 24 hours after the injection the mice were sacrificed. The peripheral blood was recovered from the orbital plexus in heparin (5 IU/ml) (Sigma).
After counting, a test for phagocytosis of HEMA particles (synthetic microspheres prepared from 2-hydroxyethylmethacrylate copolymer) was carried out as described in: Rembaum et al., 1976, Vetvicka et al. 1982, Bilej et al., 1989. 0.1 ml of heparinized fresh blood was added to 0.05 ml of diluted HEMA particles (5×10^8/ml) and incubated for 60 minutes at 37° C. under occasional moderate stirring.
At the end of the incubation, the cell suspension was smeared onto microscope slides. The smears were evaluated under an optical microscope after Giemsa staining.
Cells surrounding at least three particles were considered to be positive.

peripheral blood cells [2] = assay: Differential count in the blood; conditions: 100 μg/mouse, same groups as Example 8; Giemsa staining; control PBS; FIG. 3
Method: as §1, §2
By using the same experimental groups as in Example 8, two additional microscope slides were prepared from each experimental sample. After Giemsa staining, the presence of individual types of cells i.e. monocytes, lymphocytes and granulocytes were evaluated for each slide with an optical microscope.

peritoneal cells [3] = assay: Phagocytosis of HEMA particles by cells obtained from the peritoneal cavity after injection of the oligosaccharide; conditions: 100 μg/mouse intraperitoneal, after 24 hours, control PBS, cells with at least six HEMA particles positive, FIG. 2
Method: as §1
One or other of a control, LAM7, LAM5, A0 or A2 were injected, by intraperitoneal route, into a group of Balb/c mice (Jackson laboratory, Bar Harbor, Me., USA).
After 24 hours, the mice were sacrificed, the peritoneal cells were collected in a Hanks medium (Sigma).
After counting of the cells in a haemocytometer, the peritoneal cells were diluted to 1×10^7 in an RPMI 1640 medium (Sigma) with 5% foetal calf serum (Hyclone, Logan, Utah, USA). 2×10^6 cells in 0.2 ml of RPMI 1640 medium with 5% foetal calf serum added were mixed with the same volume of HEMA particles (5×10^8/ml).
The suspension was incubated for 60 minutes at 37° C. under occasional moderate stirring. The incubation was stopped by centrifugation (150 g for 5 minutes) and the pellet was replaced in suspension.
The macrophages with ingested particles were counted under an optical microscope in smears stained with Accustain (modified Wright stain, Sigma).
The cells surrounding at least six particles were considered as being positive.

peritoneal cells [4] = assay: Differential count in the peritoneal cells; conditions: 100 μg/mouse, same groups as Example 8; Giemsa staining; control PBS; FIG. 4
Method: as §1
By using the same experimental groups as in Example 8, two additional microscope slides of each experimental sample were prepared. After Giemsa staining, the presence of individual types of cells i.e. macrophages, lymphocytes and mastocytes were evaluated for each slide with an optical microscope.

OC[C@H]1O[C@@H](O[C@@H]2[C@@H](O)[C@H](O[C@@H]3[C@@H](O)[C@H](O[C@@H]4[C@@H](O)[C@H](O[C@@H]5[C@@H](O)[C@H](O[C@@H]6[C@H](O)[C@H](O)O[C@H](CO)[C@H]6O)O[C@H](CO)[C@H]5O)O[C@H](CO)[C@H]4O)O[C@H](CO)[C@H]3O)O[C@H](CO)[C@H]2O)[C@H](O)[C@@H](O)[C@@H]1O [Product A2, β-D-glucopyranosyl-(1→3)-β-D-glucopyranosyl-(1→3)-β-D-glucopyranosyl-(1→3)-β-D-glucopyranosyl-(1→3)-β-D-glucopyranosyl-(1→3)-β-D-mannopyranose]
phagocytosis in the granulocytes (peripheral blood cells [1]): strongly stimulate phagocytosis | phagocytosis in the monocytes (peripheral blood cells [1]): strongly stimulate phagocytosis | number of granulocytes in the peripheral blood (peripheral blood cells [2]): increase the number | number of monocytes in the peripheral blood (peripheral blood cells [2]): increase the number | phagocytosis in the granulocytes of peritoneal macrophages (peritoneal cells [3]): strongly stimulate phagocytosis | phagocytosis in the monocytes of peritoneal macrophages (peritoneal cells [3]): strongly stimulate phagocytosis | number of granulocytes in the peritoneal cavity (peritoneal cells [4]): increase the number | number of monocytes in the peritoneal cavity (peritoneal cells [4]): increase the number
